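Cultured in 96-well plates, cells were exposed to test compound for 48 hours across five concentrations. GI50: concentration for 50% inhibition of growth. The concentration for full growth arrest is given as TGI.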
Experiments:
Assay in all cases: NCI-60 cell line screen, 48 h
BT-549 breast = system: BT-549 breast
UACC-62 melanoma = system: UACC-62 melanoma
PC-3 prostate = system: PC-3 prostate
IGROV1 ovarian = system: IGROV1 ovarian
OVCAR-8 ovarian = system: OVCAR-8 ovarian
KM12 colon = system: KM12 colon
RPMI-8226 leukemia = system: RPMI-8226 leukemia
UO-31 renal = system: UO-31 renal
HCT-116 colon = system: HCT-116 colon
SR leukemia = system: SR leukemia
A498 renal = system: A498 renal
MDA-MB-435 = system: MDA-MB-435
HOP-92 NSCLC = system: HOP-92 NSCLC
NCI/ADR-RES ovarian = system: NCI/ADR-RES ovarian
SW-620 colon = system: SW-620 colon
HS 578T breast = system: HS 578T breast
786-0 renal = system: 786-0 renal
SNB-19 CNS = system: SNB-19 CNS
COLO 205 colon = system: COLO 205 colon
LOX IMVI melanoma = system: LOX IMVI melanoma
ACHN renal = system: ACHN renal
A549 NSCLC = system: A549 NSCLC
NCI-H522 lung = system: NCI-H522 lung
DU-145 prostate = system: DU-145 prostate
CAKI-1 renal = system: CAKI-1 renal
SNB-75 CNS = system: SNB-75 CNS
RXF 393 renal = system: RXF 393 renal
MALME-3M melanoma = system: MALME-3M melanoma
SK-MEL-28 melanoma = system: SK-MEL-28 melanoma
MDA-MB-468 breast = system: MDA-MB-468 breast
OVCAR-4 ovarian = system: OVCAR-4 ovarian
NCI-H23 lung = system: NCI-H23 lung
SF-295 CNS = system: SF-295 CNS
MCF7 breast = system: MCF7 breast
M14 melanoma = system: M14 melanoma
U251 CNS = system: U251 CNS
MDA-MB-231 breast = system: MDA-MB-231 breast
SF-539 CNS = system: SF-539 CNS
UACC-257 melanoma = system: UACC-257 melanoma
HOP-62 NSCLC = system: HOP-62 NSCLC
HCC-2998 colon = system: HCC-2998 colon
SN12C renal = system: SN12C renal
SK-OV-3 ovarian = system: SK-OV-3 ovarian
OVCAR-5 ovarian = system: OVCAR-5 ovarian
HCT-15 colon = system: HCT-15 colon
NCI-H226 lung = system: NCI-H226 lung
OVCAR-3 ovarian = system: OVCAR-3 ovarian
SK-MEL-2 melanoma = system: SK-MEL-2 melanoma
CCRF-CEM leukemia = system: CCRF-CEM leukemia
MOLT-4 leukemia = system: MOLT-4 leukemia
SF-268 CNS = system: SF-268 CNS
TK-10 renal = system: TK-10 renal
EKVX NSCLC = system: EKVX NSCLC
SK-MEL-5 melanoma = system: SK-MEL-5 melanoma
T-47D breast = system: T-47D breast
NCI-H460 lung = system: NCI-H460 lung
HT29 colon = system: HT29 colon
K-562 leukemia = system: K-562 leukemia
HL-60(TB) leukemia = system: HL-60(TB) leukemia

## Cn1cc(-c2cc(N)n3nc(-c4c[nH]c5ccccc45)cc3n2)c2cc(F)ccc21
BT-549 breast
  GI50: 17.6 µM
  TGI: 34.2 µM
UACC-62 melanoma
  GI50: 1.71 µM
  TGI: 3.19 µM
PC-3 prostate
  GI50: 2.48 µM
  TGI: 9.08 µM
IGROV1 ovarian
  GI50: 2.18 µM
  TGI: 5.61 µM
OVCAR-8 ovarian
  GI50: 3.35 µM
  TGI: > 100 µM
KM12 colon
  GI50: 2.12 µM
  TGI: 4.64 µM
RPMI-8226 leukemia
  GI50: 2.48 µM
  TGI: 6.22 µM
UO-31 renal
  GI50: 1.71 µM
  TGI: 3.65 µM
HCT-116 colon
  GI50: 1.71 µM
  TGI: 3.24 µM
SR leukemia
  GI50: 2.01 µM
  TGI: > 100 µM
A498 renal
  GI50: 11.6 µM
  TGI: 26.6 µM
MDA-MB-435
  GI50: 1.93 µM
  TGI: 4.01 µM
HOP-92 NSCLC
  GI50: 2.06 µM
  TGI: 4.46 µM
NCI/ADR-RES ovarian
  GI50: 2.35 µM
  TGI: 6.35 µM
SW-620 colon
  GI50: 1.95 µM
  TGI: 4 µM
HS 578T breast
  GI50: 3.91 µM
  TGI: 21.7 µM
786-0 renal
  GI50: 1.49 µM
  TGI: 2.95 µM
SNB-19 CNS
  GI50: 2.38 µM
  TGI: 6.25 µM
COLO 205 colon
  GI50: 2.17 µM
  TGI: 4.33 µM
LOX IMVI melanoma
  GI50: 1.74 µM
  TGI: 3.11 µM
ACHN renal
  GI50: 2.07 µM
  TGI: 4.81 µM
A549 NSCLC
  GI50: 2.84 µM
  TGI: 11.1 µM
NCI-H522 lung
  GI50: 1.78 µM
  TGI: 3.62 µM
DU-145 prostate
  GI50: 3.7 µM
  TGI: 13.3 µM
CAKI-1 renal
  GI50: 1.97 µM
  TGI: 4.73 µM
SNB-75 CNS
  GI50: 5.15 µM
  TGI: 20.3 µM
RXF 393 renal
  GI50: 1.9 µM
  TGI: 4.19 µM
MALME-3M melanoma
  GI50: 1.75 µM
  TGI: 3.18 µM
SK-MEL-28 melanoma
  GI50: 1.7 µM
  TGI: 3.13 µM
MDA-MB-468 breast
  GI50: 1.52 µM
  TGI: 2.97 µM
OVCAR-4 ovarian
  GI50: 2.76 µM
  TGI: 8.16 µM
NCI-H23 lung
  GI50: 1.91 µM
  TGI: 4.22 µM
SF-295 CNS
  GI50: 1.71 µM
  TGI: 3.39 µM
MCF7 breast
  GI50: 1.95 µM
  TGI: 4.34 µM
M14 melanoma
  GI50: 1.86 µM
  TGI: 3.98 µM
U251 CNS
  GI50: 1.97 µM
  TGI: 4.09 µM
MDA-MB-231 breast
  GI50: 1.98 µM
  TGI: 3.63 µM
SF-539 CNS
  GI50: 1.63 µM
  TGI: 3.01 µM
UACC-257 melanoma
  GI50: 1.9 µM
  TGI: 3.85 µM
HOP-62 NSCLC
  GI50: 2.83 µM
  TGI: 13.9 µM
HCC-2998 colon
  GI50: 1.69 µM
  TGI: 3.18 µM
SN12C renal
  GI50: 2.44 µM
  TGI: 7.03 µM
SK-OV-3 ovarian
  GI50: 6.82 µM
  TGI: 23.6 µM
OVCAR-5 ovarian
  GI50: 1.97 µM
  TGI: 4.27 µM
HCT-15 colon
  GI50: 1.79 µM
  TGI: 3.78 µM
NCI-H226 lung
  GI50: 10.7 µM
  TGI: 45.2 µM
OVCAR-3 ovarian
  GI50: 2.3 µM
  TGI: 4.68 µM
SK-MEL-2 melanoma
  GI50: 2.06 µM
  TGI: 4.91 µM
CCRF-CEM leukemia
  GI50: 2.23 µM
  TGI: 5.75 µM
MOLT-4 leukemia
  GI50: 2.32 µM
  TGI: 6.32 µM
SF-268 CNS
  GI50: 2.6 µM
  TGI: 8.08 µM
TK-10 renal
  GI50: 2.02 µM
  TGI: 7.64 µM
EKVX NSCLC
  GI50: 1.99 µM
  TGI: 4.86 µM
SK-MEL-5 melanoma
  GI50: 1.85 µM
  TGI: 3.73 µM
T-47D breast
  GI50: 2.05 µM
  TGI: 4.92 µM
NCI-H460 lung
  GI50: 2.2 µM
  TGI: 4.99 µM
HT29 colon
  GI50: 1.89 µM
  TGI: 3.96 µM

## COc1cc(/C=C/C(=O)c2ccc(NC(=O)CN3C(=O)NC(C)(c4ccccc4)C3=O)cc2)cc(OC)c1OC (configuration not stated)
BT-549 breast
  GI50: 4.73 µM
  TGI: 21.2 µM
UACC-62 melanoma
  GI50: 11.7 µM
  TGI: 24.8 µM
PC-3 prostate
  GI50: 10.8 µM
  TGI: > 100 µM
IGROV1 ovarian
  GI50: 4.85 µM
  TGI: 25.2 µM
OVCAR-8 ovarian
  GI50: 5.03 µM
  TGI: > 100 µM
KM12 colon
  GI50: 3.69 µM
  TGI: 17.8 µM
RPMI-8226 leukemia
  GI50: 2.32 µM
  TGI: 10.2 µM
UO-31 renal
  GI50: 17.3 µM
  TGI: 74.1 µM
HCT-116 colon
  GI50: 2.27 µM
  TGI: 8.61 µM
SR leukemia
  GI50: 1.93 µM
  TGI: > 100 µM
A498 renal
  GI50: 31.6 µM
  TGI: > 100 µM
MDA-MB-435
  GI50: 3.64 µM
  TGI: 47.9 µM
HOP-92 NSCLC
  GI50: 34 µM
  TGI: > 100 µM
NCI/ADR-RES ovarian
  GI50: > 100 µM
  TGI: > 100 µM
SW-620 colon
  GI50: 4.35 µM
  TGI: 20.8 µM
HS 578T breast
  GI50: 32.6 µM
  TGI: > 100 µM
786-0 renal
  GI50: 8.43 µM
  TGI: 23.3 µM
SNB-19 CNS
  GI50: 14.9 µM
  TGI: 32.9 µM
K-562 leukemia
  GI50: 3.16 µM
  TGI: > 100 µM
COLO 205 colon
  GI50: 13.7 µM
  TGI: 30.4 µM
LOX IMVI melanoma
  GI50: 3.09 µM
  TGI: 13.2 µM
ACHN renal
  GI50: 13.6 µM
  TGI: 46.7 µM
A549 NSCLC
  GI50: 4.53 µM
  TGI: > 100 µM
NCI-H522 lung
  GI50: 9 µM
  TGI: 23.7 µM
DU-145 prostate
  GI50: 3.66 µM
  TGI: 15 µM
CAKI-1 renal
  GI50: 8.66 µM
  TGI: > 100 µM
SNB-75 CNS
  GI50: 5.33 µM
  TGI: 84.5 µM
RXF 393 renal
  GI50: 3.01 µM
  TGI: 12.2 µM
MALME-3M melanoma
  GI50: 14.6 µM
  TGI: 44.3 µM
SK-MEL-28 melanoma
  GI50: 14.6 µM
  TGI: 32.1 µM
MDA-MB-468 breast
  GI50: 3.2 µM
  TGI: 12.6 µM
HL-60(TB) leukemia
  GI50: 2.26 µM
  TGI: 8.23 µM
OVCAR-4 ovarian
  GI50: 13.4 µM
  TGI: > 100 µM
NCI-H23 lung
  GI50: 4.61 µM
  TGI: 19.4 µM
SF-295 CNS
  GI50: 14.3 µM
  TGI: 31.8 µM
MCF7 breast
  GI50: 3.06 µM
  TGI: 13.5 µM
M14 melanoma
  GI50: 6.67 µM
  TGI: 22.9 µM
U251 CNS
  GI50: 2.7 µM
  TGI: 12.4 µM
MDA-MB-231 breast
  GI50: 4.52 µM
  TGI: 25.4 µM
SF-539 CNS
  GI50: 2.23 µM
  TGI: 5.69 µM
UACC-257 melanoma
  GI50: 11.6 µM
  TGI: 28 µM
HOP-62 NSCLC
  GI50: 15.8 µM
  TGI: 93.4 µM
HCC-2998 colon
  GI50: 2.92 µM
  TGI: 8.97 µM
SN12C renal
  GI50: 12.9 µM
  TGI: 42 µM
SK-OV-3 ovarian
  GI50: 37.4 µM
  TGI: > 100 µM
OVCAR-5 ovarian
  GI50: 10.5 µM
  TGI: 26.7 µM
HCT-15 colon
  GI50: 11.7 µM
  TGI: 48.9 µM
NCI-H226 lung
  GI50: 19.3 µM
  TGI: > 100 µM
OVCAR-3 ovarian
  GI50: 4.16 µM
  TGI: 21 µM
SK-MEL-2 melanoma
  GI50: 17.5 µM
  TGI: 40.7 µM
CCRF-CEM leukemia
  GI50: 2.9 µM
  TGI: > 100 µM
MOLT-4 leukemia
  GI50: 2.57 µM
  TGI: 8.25 µM
SF-268 CNS
  GI50: 8.39 µM
  TGI: 90.8 µM
TK-10 renal
  GI50: 46.6 µM
  TGI: > 100 µM
EKVX NSCLC
  GI50: 12.9 µM
  TGI: 75.8 µM
SK-MEL-5 melanoma
  GI50: 9.99 µM
  TGI: 21.5 µM
T-47D breast
  GI50: 6.56 µM
  TGI: 69.9 µM
NCI-H460 lung
  GI50: 3.93 µM
  TGI: 22.7 µM
HT29 colon
  GI50: 3.75 µM
  TGI: 13 µM

— PubChem BioAssay (NCI)
